Patent publication US20070128217A1 (priority 2003, published 2007)

Tests used:
[1] = test system: antibodies in sera from SARS patients (sera 1a, 1b, 2, 6, 37, 62, London, SARS-yellow, SARS-green); type: binding, human; parameters: Binding of serum 6 to linear peptides of protein X1 of SARS-CoV Urbani / Binding of serum 37 to linear peptides of protein X1 of SARS-CoV Urbani / Binding of serum 6 to looped/cyclic peptide (PEPSCAN-ELISA) / Binding of serum 37 to looped/cyclic peptide (PEPSCAN-ELISA) / Binding of serum 37 to looped/cyclic peptides of protein X1 of SARS-CoV Urbani / Binding of serum 6 to linear peptides of protein X2 / Binding of serum 37 to linear peptides of protein X2 / Binding of serum 37 to looped/cyclic peptides of protein X2 of SARS-CoV Urbani / Binding of serum 6 to linear peptides of protein M of SARS-CoV Urbani / Binding of serum 37 to linear peptides of protein M of SARS-CoV Urbani / Binding of serum 6 to looped/cyclic peptides of protein M of SARS-CoV Urbani / Binding of serum 37 to looped/cyclic peptides of protein M of SARS-CoV Urbani / Binding of serum 6 to linear peptides of protein X3 of SARS-CoV Urbani / Binding of serum 37 to linear peptides of protein X3 of SARS-CoV Urbani / Binding of serum 37 to looped/cyclic peptides of protein X3 of SARS-CoV Urbani / Binding of serum 6 to linear peptides of protein X4 of SARS-CoV Urbani / Binding of serum 37 to linear peptides of protein X4 of SARS-CoV Urbani / Binding of serum 37 to looped/cyclic peptides of protein X4 of SARS-CoV Urbani / Binding of serum 6 to linear peptides of protein X5 of SARS-CoV Urbani / Binding of serum 37 to linear peptides of protein X5 of SARS-CoV Urbani / Binding of serum 37 to looped/cyclic peptides of protein X5 of SARS-CoV Urbani / Binding of serum 6 to linear peptides of protein N of SARS-CoV Urbani / Binding of serum 37 to linear peptides of protein N of SARS-CoV Urbani / Binding of serum 6 to linear peptide (PEPSCAN-ELISA) / Binding of serum 1a to looped/cyclic peptides of protein N of SARS-CoV Urbani / Binding of serum 1b to looped/cyclic peptides of protein N of SARS-CoV Urbani / Binding of serum 2 to looped/cyclic peptides of protein N of SARS-CoV Urbani / Binding of serum 6 to looped/cyclic peptides of protein N of SARS-CoV Urbani / Binding of serum 37 to looped/cyclic peptides of protein N of SARS-CoV Urbani / Binding of serum 62 to looped/cyclic peptides of protein N of SARS-CoV Urbani / Binding of serum London to looped/cyclic peptides of protein N of SARS-CoV Urbani / Binding of serum SARS-green to looped/cyclic peptides of protein N of SARS-CoV Urbani: unit not given here
[2] = test system: control sera (pooled serum of ten healthy LUMC hospital workers; commercial negative donor pooled serum from the Dutch bloodbank); type: binding, human; parameters: Binding of Control serum LUMC to linear peptides / Binding of Control serum Blood-bank to linear peptides / Binding of Control serum LUMC to looped peptides / Binding of Control Serum Blood-Bank to Looped peptides / Binding of Control serum LUMC to linear peptides of the protein M of SARS-CoV Urbani / Binding of Control serum Blood-bank to linear peptides of the protein M of SARS-CoV Urbani / Binding of Control serum LUMC to looped peptides of the protein M of SARS-CoV Urbani / Binding of Control Serum Blood-Bank to Looped peptides of the protein M of SARS-CoV Urbani: unit not given here
[3] = test system: rabbit serum obtained by immunizing a rabbit with the SARS-CoV strain Frankfurt 1; type: binding; parameters: Binding of a rabbit serum to linear peptides / Binding of a rabbit serum to looped peptides / Rabbit serum linear peptides / Rabbit serum looped peptides / Binding of a rabbit serum to linear peptides of protein N of SARS-CoV Urbani (Rabbit serum linear peptides) / Binding of a rabbit serum to looped/cyclic peptides of protein N of SARS-CoV Urbani (Rabbit serum looped peptides): unit not given here
[4] = test system: recombinant human anti-SARS-CoV antibody 03-018; type: binding; parameters: Binding of antibody 03-018 to linear peptides of the N protein of SARS-CoV Urbani / Binding of antibody 03-018 to looped/cyclic peptides of the N protein of SARS-CoV Urbani: unit not given here

| Sequence | Binding of serum 1a to linear peptides of protein N of SARS-CoV Urbani [1] | Binding of serum 1a to looped/cyclic peptides of protein N of SARS-CoV Urbani [1] | Binding of serum 1b to linear peptides of protein N of SARS-CoV Urbani [1] | Binding of serum 1b to looped/cyclic peptides of protein N of SARS-CoV Urbani [1] | Binding of serum 2 to linear peptides of protein N of SARS-CoV Urbani [1] | Binding of serum 2 to looped/cyclic peptides of protein N of SARS-CoV Urbani [1] | Binding of serum 6 to looped/cyclic peptides of protein N of SARS-CoV Urbani [1] | Binding of serum 37 to looped/cyclic peptides of protein N of SARS-CoV Urbani [1] | Binding of serum 62 to looped/cyclic peptides of protein N of SARS-CoV Urbani [1] | Binding of serum London to looped/cyclic peptides of protein N of SARS-CoV Urbani [1] | Binding of serum SARS-green to looped/cyclic peptides of protein N of SARS-CoV Urbani [1] | Binding of serum SARS-yellow to looped/cyclic peptides of protein N of SARS-CoV Urbani [1] | Binding of a rabbit serum to linear peptides of protein N of SARS-CoV Urbani (Rabbit serum linear peptides) [3] | Binding of a rabbit serum to looped/cyclic peptides of protein N of SARS-CoV Urbani (Rabbit serum looped peptides) [3] | Binding of antibody 03-018 to linear peptides of the N protein of SARS-CoV Urbani [4] | Binding of antibody 03-018 to looped/cyclic peptides of the N protein of SARS-CoV Urbani [4] | Binding of Control Serum Blood-Bank to Looped peptides [2] | Binding of Control serum Blood-bank to linear peptides [2] | Binding of Control serum LUMC to linear peptides [2] | Binding of Control serum LUMC to looped peptides [2] | other results |
| --- | --- | --- | --- | --- | --- | --- | --- | --- | --- | --- | --- | --- | --- | --- | --- | --- | --- | --- | --- | --- | --- |
| AADMDDFSRQLQNSM | 0.3 | 0.3 | 0.2 | 0.2 | 0.2 | 0.3 | 1.6 | 0.5 | 0.3 | 0.2 | 0.2 | 0.2 | 0.2 | 0.3 | 0.2 | 0.2 |  |  |  |  | Binding of serum 6 to linear peptides of protein N of SARS-CoV Urbani [1]: 1.2; Binding of serum 37 to linear peptides of protein N of SARS-CoV Urbani [1]: 0.7; Binding of serum 62 to linear peptides of protein N of SARS-CoV Urbani [1]: 0.6; Binding of serum London to linear peptides of protein N of SARS-CoV Urbani [1]: 0.7; Binding of serum SARS-green to linear peptides of protein N of SARS-CoV Urbani [1]: 0.4; Binding of serum SARS-yellow to linear peptides of protein N of SARS-CoV Urbani [1]: 0.7; Control Serum Blood-Bank Looped peptides [2]: 0.4; Control serum Blood-bank linear peptides [2]: 0.8; Control serum LUMC linear peptides [2]: 0.7; Control serum LUMC looped peptides [2]: 0.3 |
| AEASKKPRQKRTATK |  | 0.2 |  | 0.1 |  | 0.2 | 0.1 | 0.4 | 0.3 | 0.3 | 0.1 | 0.2 | 0.2 | 0.1 | 0.1 | 0.2 | 0.4 | 0.8 | 0.8 | 0.4 | Binding of serum 1a to linear peptide (PEPSCAN-ELISA) [1]: 0.2; Binding of serum 1b to linear peptide (PEPSCAN-ELISA) [1]: 0.1; Binding of serum 2 to linear peptide (PEPSCAN-ELISA) [1]: 0.2; Binding of serum 6 to linear peptide (PEPSCAN-ELISA) [1]: 0.3; Binding of serum 37 to linear peptide (PEPSCAN-ELISA) [1]: 0.7; Binding of serum 62 to linear peptide (PEPSCAN-ELISA) [1]: 0.7; Binding of serum London to linear peptide (PEPSCAN-ELISA) [1]: 0.4; Binding of serum SARS-green to linear peptide (PEPSCAN-ELISA) [1]: 0.4; Binding of serum SARS-yellow to linear peptide (PEPSCAN-ELISA) [1]: 0.7 |
| AEGSRGGSQASSRSS |  | 0.4 |  | 0.2 |  | 0.4 | 0.5 | 0.5 | 0.5 | 0.4 | 0.4 | 0.4 | 0.2 | 0.6 | 0.1 | 0.2 | 0.6 | 0.8 | 0.8 | 0.8 | Binding of serum 1a to linear peptide (PEPSCAN-ELISA) [1]: 0.3; Binding of serum 1b to linear peptide (PEPSCAN-ELISA) [1]: 0.2; Binding of serum 2 to linear peptide (PEPSCAN-ELISA) [1]: 0.3; Binding of serum 6 to linear peptide (PEPSCAN-ELISA) [1]: 0.3; Binding of serum 37 to linear peptide (PEPSCAN-ELISA) [1]: 0.7; Binding of serum 62 to linear peptide (PEPSCAN-ELISA) [1]: 0.7; Binding of serum London to linear peptide (PEPSCAN-ELISA) [1]: 0.5; Binding of serum SARS-green to linear peptide (PEPSCAN-ELISA) [1]: 0.4; Binding of serum SARS-yellow to linear peptide (PEPSCAN-ELISA) [1]: 0.6 |
| AFFGMSRIGMEVTPS | 0.3 | 0.4 | 0.1 | 0.3 | 0.2 | 0.4 | 0.2 | 0.6 | 0.6 | 0.4 | 0.4 | 0.5 | 0.1 | 0.5 | 0.1 | 0.2 |  |  |  |  | Binding of serum 6 to linear peptides of protein N of SARS-CoV Urbani [1]: 0.2; Binding of serum 37 to linear peptides of protein N of SARS-CoV Urbani [1]: 0.6; Binding of serum 62 to linear peptides of protein N of SARS-CoV Urbani [1]: 0.7; Binding of serum London to linear peptides of protein N of SARS-CoV Urbani [1]: 0.5; Binding of serum SARS-green to linear peptides of protein N of SARS-CoV Urbani [1]: 0.2; Binding of serum SARS-yellow to linear peptides of protein N of SARS-CoV Urbani [1]: 0.5; Control Serum Blood-Bank Looped peptides [2]: 0.6; Control serum Blood-bank linear peptides [2]: 0.7; Control serum LUMC linear peptides [2]: 0.6; Control serum LUMC looped peptides [2]: 0.8 |
| TLPKGFYAEGSRGGS |  |  |  |  |  |  |  |  |  |  |  |  | 0.5 | 0.3 | 0.1 | 0.2 | 0.5 | 0.7 | 1.2 | 0.5 |  |
| VLQLPQGTTLPKGFY |  |  |  |  |  |  |  |  |  |  |  |  | 0.2 | 0.4 | 0.1 | 0.3 | 0.7 | 0.7 | 0.6 | 0.8 |  |
